# Experiments:
# [1] = system: hyperalgesia and allodynia; conditions: rat, in vivo; cited from earlier work
# spinal cord = conditions: in vivo; cited from earlier work
# pain = conditions: in vivo; cited from earlier work
# [2] = intrathecal, combined with opioids, up to more than 30 mg/day; cited from earlier work
# [3] = system: pain due to severe spastic right hemiparesis post stroke; conditions: for pain relief: human, in vivo, iv
# [4] = system: spinal tissue or meninges; conditions: dog, in vivo, 1 mg/kg; cited from earlier work
# gliosis = conditions: rat, in vivo; cited from earlier work
structure (smiles),measurement,setting,value
C=CCN1CC[C@]23c4c5ccc(O)c4O[C@H]2C(=O)CC[C@@]3(O)[C@H]1C5 [naloxone],effect on antihyperalgesia and antiallodynia effects of morphine,[1],enhanced
same,signs of spinal cord toxicity,spinal cord,have not demonstrated signs of spinal cord toxicity
same,effect on morphine analgesic effect,pain,dramatically enhanced
same,side effects,pain,without apparent side effects
CCCCN1CCCCC1C(=O)Nc1c(C)cccc1C (stereo not shown) [bupivacaine],bladder dysfunction or muscle weakness,[2],did not cause bladder dysfunction or muscle weakness
NCC(CC(=O)O)c1ccc(Cl)cc1 (stereo not shown) [Baclofen],pain relief,[3],no relief
CNC1(c2ccccc2Cl)CCCCC1=O (stereo not shown) [ketamine],histological alterations of spinal tissue or meninges,[4],no histological alterations
same,pain relief,[3],did not provide any relief
same,tolerability,[3]; intravenous infusions,well tolerated
O=C1CC[C@@]2(O)[C@H]3Cc4ccc(O)c5c4[C@@]2(CCN3CC2CC2)[C@H]1O5 [naltrexone],gliosis,gliosis,attenuates gliosis

# — US10350203B2, “Multidrug infusion for pain control” (priority 2014, dated 2019)
